Earlier results in patent US20260335281A1, “PHARMACEUTICAL COMPOSITION COMPRISING CENTANAFADINE” (OTSUKA PHARMACEUTICAL CO., LTD., priority 2022, published 2026).

Legend:
[1] = system: norepinephrine (NE) reuptake
[2] = system: serotonin (5-HT) reuptake
[3] = fold less than against norepinephrine reuptake, background statement

## c1ccc2cc([C@]34CNC[C@H]3C4)ccc2c1 [(1R,5S)-1-(naphthalen-2-yl)-3-azabicyclo[3.1.0]hexane]
[1]; compared with DA and 5-HT reuptake, background statement
  effectiveness against norepinephrine (NE) reuptake: most effective
[1]; in words, PL 1 (JP 5184354 B)
  inhibition of norepinephrine reuptake: can inhibit the reuptake
Dopamine (DA) reuptake; [3]
  effectiveness against dopamine (DA) reuptake, fold less: 6 fold
Dopamine (DA) reuptake; in words, PL 1 (JP 5184354 B)
  inhibition of dopamine reuptake: can inhibit the reuptake
[2]; [3]
  effectiveness against serotonin (5-HT) reuptake, fold less: 14 fold
[2]; in words, PL 1 (JP 5184354 B)
  inhibition of serotonin reuptake: can inhibit the reuptake
